According to patent US20100298141A1, “SUBSTITUTED PYRIDINE N-OXIDE HERBICIDES” (E. I. DU PONT DE NEMOURS AND COMPANY, priority 2007, published 2010):

Legend:
field bindweed = test: Test F preemergence test; format: in vivo, Convolvulus arvensis; settings: scale 0 to 100
Outline: (§1)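 Preemergence application to planted seeds, or postemergence to sugarcane plants; compound in non-phytotoxic solvent mix plus surfactant. Greenhouse, 14-21 days. Visual rating vs. controls.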

barnyardgrass [1] = test: Test F preemergence test; format: in vivo, Echinochloa crus-galli
Outline: as §1

broadleaf signalgrass = test: Test F preemergence test; format: in vivo, Brachiaria platyphylla; settings: scale 0 to 100
Outline: as §1

mustard = test: Test F preemergence test; format: in vivo, Brassica nigra; settings: scale 0 to 100
Outline: as §1

barnyardgrass [2] = test: Test A pre-/postemergence greenhouse test; format: in vivo, Echinochloa crus-galli; settings: for Barnyardgrass plant response rating: 0 to 100 scale; for Plant response rating, Barnyardgrass: 0 to 100 scale where 0 is no effect and 100 is complete control
Outline: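 Sowing in loam/sand; same-day pre (directed soil spray) and post (foliar, 1–2 leaf, 2–10 cm) treatment with surfactant-containing non-phytotoxic solvent formulation; ~10 days in greenhouse; eye-scored injury against untreated plants.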

dallisgrass = test: Test F preemergence test; format: in vivo, Paspalum dilatatum; settings: scale 0 to 100
Outline: as §1

kochia = test: Test C pre-/postemergence test; format: in vivo, Kochia scoparia
Outline: (§2)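 Seeds were planted and treated preemergence with test chemical in a non-phytotoxic solvent mixture containing surfactant. Postemergence applications of the same formulation went onto plants 2 to 18 cm tall (1- to 4-leaf stage). A dash marks no test result.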

green foxtail = test: Test F preemergence test; format: in vivo, Setaria viridis; settings: scale 0 to 100
Outline: as §1

common mallow = test: Test F preemergence test; format: in vivo, Malva sylvestris; settings: scale 0 to 100
From the text: (§3) Seeds of plant species selected from bermudagrass (Cynodon dactylon), Surinam grass (Brachiaria decumbens), large crabgrass (Digitaria sanguinalis), green foxtail (Setaria viridis), goosegrass (Eleusine indica), johnsongrass (Sorghum halepense), kochia (Kochia scoparia), pitted morningglory (Ipomoea lacunosa), purple nutsedge (Cyperus rotundus), common ragweed (Ambrosia elation), mustard (Brassica nigra), guineagrass (Panicum maximum), […] (Paspalum dilatatum), barnyardgrass (Echinochloa crus-galli), southern sandbur (Cenchrus echinatus), common sowthistle (Sonchus oleraceous), prickly […] spinosa), Italian ryegrass (Lolium multiflorum), common purslane (Portulaca oleracea), broadleaf signalgrass (Brachiaria platyphylla), common groundsel (Senecio vulgaris), common chickweed (Stellaria media), Virginia dayflower (Commelina virginica), annual bluegrass (Poa annua), naked crabgrass (Digitaria nuda), […] cochinchinensis), quackgrass (Elytrigia repens), Canada horseweed (Conyza canadensis), field bindweed (Convolvulus arvensis), […] (Bidens bipinnata), common mallow (Malva sylvestris), Russian thistle (Salsola kali), and sugarcane (Saccharum officinarum) were planted and treated preemergence with test chemicals formulated in a non-phytotoxic solvent mixture which included a surfactant. At a different time, sugarcane was treated with postemergence applications of some of the test chemicals formulated in the same manner. Plants were approximately 3- to 4-leaf stage for the postemergence treatments. Treated plants and controls were maintained in a greenhouse for 14 to 21 days, after which time all species were compared to controls and visually evaluated. […] A dash (-) response means no test result.

Virginia dayflower = test: Test F preemergence test; format: in vivo, Commelina virginica; settings: scale 0 to 100
From the text: as §3

annual bluegrass = test: Test F preemergence test; format: in vivo, Poa annua; settings: scale 0 to 100
Outline: as §1

itchgrass = test: Test F preemergence test; format: in vivo, Rottboellia cochinchinensis; settings: scale 0 to 100
Outline: as §1

cocklebur = test: Test C pre-/postemergence test; format: in vivo, Xanthium strumarium
Outline: as §2

velvetleaf = test: Test C pre-/postemergence test; format: in vivo, Abutilon theophrasti
Outline: as §2

[3] = 62 g ai/ha, Preemergence, scale 0 to 100
[4] = Preemergence, 31 g ai/ha, scale 0 to 100
[5] = Postemergence, 500 g ai/ha, 0 is no effect, 100 is complete control
[6] = Preemergence, 125 g ai/ha, 0 no effect, 100 complete control
[7] = 31 g ai/ha, Preemergence, scale 0 to 100
[8] = 62 g ai/ha, preemergence, scale 0 (no effect) to 100 (complete control)
[9] = preemergence, 125 g ai/ha, scale 0 (no effect) to 100 (complete control)
[10] = 125 g ai/ha, preemergence, scale 0 (no effect) to 100 (complete control)
[11] = Preemergence, 31 g ai/ha, scale 0 to 100 (0 no effect, 100 complete control)
[12] = preemergence, 250 g ai/ha, scale 0 (no effect) to 100 (complete control)

Cn1nc(C(F)(F)F)c(CS(=O)(=O)c2cccc[n+]2[O-])c1OC(F)F [Compound 4]
20: Plant response rating, Black Mustard (mustard; Preemergence, 16 g ai/ha) | Plant response rating, Bluegrass (annual bluegrass; Preemergence, 31 g ai/ha)
95: Foxtail, Green plant response rating (green foxtail; 62 g ai/ha, Preemergence)
15: Plant response rating, Signalgrass (broadleaf signalgrass; 16 g ai/ha, preemergence)
100: Plant response rating, Barnyardgrass (barnyardgrass [2]; Preemergence, 500 g ai/ha) | Kochia plant response rating (kochia; [8]) | Plant response rating (0 to 100), Kochia (kochia; Preemergence, 250 g ai/ha) | Kochia plant response rating (kochia; [9]) | Itchgrass plant response rating (itchgrass; 62 g ai/ha, Preemergence)
80: Barnyardgrass plant response rating (barnyardgrass [1]; [3]) | Plant response rating, Barnyardgrass (barnyardgrass [1]; [4]) | Signalgrass plant response rating (broadleaf signalgrass; 62 g ai/ha, Preemergence) | Barnyardgrass plant response rating (barnyardgrass [2]; [5]) | Dallisgrass plant response rating (dallisgrass; 62 g ai/ha, Preemergence)
75: Bluegrass plant response rating (annual bluegrass; 62 g ai/ha, Preemergence)
98: Black Mustard plant response rating (mustard; 62 g ai/ha, Preemergence) | Plant response rating, Black Mustard (mustard; Preemergence, 31 g ai/ha)
35: Plant response rating, Signalgrass (broadleaf signalgrass; Preemergence, 31 g ai/ha) | Plant response rating, Dallisgrass (dallisgrass; Preemergence, 31 g ai/ha) | Plant response rating, Foxtail, Green (green foxtail; Preemergence, 16 g ai/ha) | Plant response rating, Itchgrass (itchgrass; Preemergence, 31 g ai/ha)
10: Plant response rating, Barnyardgrass (barnyardgrass [1]; 8 g ai/ha, preemergence, scale 0 to 100)
70: Barnyardgrass plant response rating (barnyardgrass [2]; Postemergence, 125 g ai/ha, 0 is no effect, 100 is complete control) | Barnyardgrass plant response rating (barnyardgrass [2]; [6]) | Plant response rating, Foxtail, Green (green foxtail; Preemergence, 31 g ai/ha)
65: Plant response rating, Barnyardgrass (barnyardgrass [1]; Preemergence, 16 g ai/ha, scale 0 to 100)
90: Dayflower plant response rating (Virginia dayflower; 62 g ai/ha, Preemergence) | Plant response rating, Dayflower (Virginia dayflower; Preemergence, 31 g ai/ha)
0: Plant response rating, Field Bindweed (field bindweed; 8 g ai/ha, preemergence) | Field Bindweed plant response rating (field bindweed; 62 g ai/ha, Preemergence) | Plant response rating, Field Bindweed (field bindweed; Preemergence, 16 g ai/ha) | Plant response rating, Field Bindweed (field bindweed; Preemergence, 31 g ai/ha) | Plant response rating, Signalgrass (broadleaf signalgrass; 8 g ai/ha, preemergence) | Plant response rating, Black Mustard (mustard; 8 g ai/ha, preemergence) | Plant response rating, Dallisgrass (dallisgrass; 8 g ai/ha, preemergence) | Plant response rating, Dallisgrass (dallisgrass; Preemergence, 16 g ai/ha) | Kochia plant response rating (kochia; [7]) | Plant response rating, Foxtail, Green (green foxtail; 8 g ai/ha, preemergence) | Plant response rating, Mallow (common mallow; 8 g ai/ha, preemergence) | Mallow plant response rating (common mallow; 62 g ai/ha, Preemergence) | Plant response rating, Mallow (common mallow; Preemergence, 16 g ai/ha) | Plant response rating, Mallow (common mallow; Preemergence, 31 g ai/ha) | Plant response rating, Dayflower (Virginia dayflower; 8 g ai/ha, preemergence) | Plant response rating, Dayflower (Virginia dayflower; Preemergence, 16 g ai/ha) | Plant response rating, Bluegrass (annual bluegrass; 8 g ai/ha, preemergence) | Plant response rating, Bluegrass (annual bluegrass; Preemergence, 16 g ai/ha) | Plant response rating, Itchgrass (itchgrass; 8 g ai/ha, preemergence) | Plant response rating, Itchgrass (itchgrass; Preemergence, 16 g ai/ha) | Cocklebur plant response rating (cocklebur; [7]) | Cocklebur plant response rating (cocklebur; [8]) | Plant response rating (0 to 100), Cocklebur (cocklebur; Preemergence, 250 g ai/ha) | Cocklebur plant response rating (cocklebur; [9])

CCn1nc(C(F)(F)F)c(CS(=O)(=O)c2cccc[n+]2[O-])c1OCC(F)(F)F [Compound 63]
25: Plant response rating, Bluegrass (annual bluegrass; 16 g ai/ha, preemergence)
15: Plant response rating, Signalgrass (broadleaf signalgrass; 16 g ai/ha, preemergence) | Plant response rating, Dallisgrass (dallisgrass; 16 g ai/ha, preemergence)
40: Plant response rating, Signalgrass (broadleaf signalgrass; Preemergence, 31 g ai/ha)
0: Plant response rating, Field Bindweed (field bindweed; 16 g ai/ha, preemergence) | Field Bindweed plant response rating (field bindweed; 62 g ai/ha, Preemergence) | Field Bindweed plant response rating (field bindweed; 125 g ai/ha, preemergence) | Plant response rating, Field Bindweed (field bindweed; Preemergence, 31 g ai/ha) | Plant response rating, Black Mustard (mustard; 16 g ai/ha, preemergence) | Plant response rating, Mallow (common mallow; 16 g ai/ha, preemergence) | Plant response rating, Dayflower (Virginia dayflower; 16 g ai/ha, preemergence)
80: Plant response rating, Barnyardgrass (barnyardgrass [1]; 16 g ai/ha, preemergence, scale 0 to 100 (0 no effect, 100 complete control)) | Plant response rating, Barnyardgrass (barnyardgrass [1]; [4]) | Dallisgrass plant response rating (dallisgrass; 62 g ai/ha, Preemergence) | Plant response rating, Foxtail, Green (green foxtail; Preemergence, 31 g ai/ha) | Velvetleaf plant response rating (velvetleaf; [3]) | Itchgrass plant response rating (itchgrass; 62 g ai/ha, Preemergence)
85: Velvetleaf plant response rating (velvetleaf; [10])
50: Black Mustard plant response rating (mustard; 62 g ai/ha, Preemergence) | Plant response rating, Black Mustard (mustard; Preemergence, 31 g ai/ha) | Plant response rating, Dallisgrass (dallisgrass; Preemergence, 31 g ai/ha) | Plant response rating, Velvetleaf (velvetleaf; [11]) | Plant response rating, Itchgrass (itchgrass; Preemergence, 31 g ai/ha)
10: Plant response rating, Itchgrass (itchgrass; 16 g ai/ha, preemergence)
65: Plant response rating, Foxtail, Green (green foxtail; 16 g ai/ha, preemergence) | Plant response rating, Bluegrass (annual bluegrass; Preemergence, 31 g ai/ha)
98: Plant response rating, Mallow (common mallow; Preemergence, 31 g ai/ha)
95: Barnyardgrass plant response rating (barnyardgrass [1]; [3])
100: Barnyardgrass plant response rating (barnyardgrass [1]; 125 g ai/ha, preemergence, scale 0 to 100) | Signalgrass plant response rating (broadleaf signalgrass; 125 g ai/ha, preemergence) | Plant response rating, Signalgrass (broadleaf signalgrass; Preemergence, 62 g ai/ha) | Plant response rating, Barnyardgrass (barnyardgrass [2]; Preemergence, 500 g ai/ha) | Dallisgrass plant response rating (dallisgrass; 125 g ai/ha, preemergence) | Kochia plant response rating (kochia; [3]) | Kochia plant response rating (kochia; [10]) | Plant response rating, Kochia (kochia; [11]) | Kochia plant response rating (kochia; [12]) | Foxtail, Green plant response rating (green foxtail; 125 g ai/ha, preemergence) | Mallow plant response rating (common mallow; 125 g ai/ha, preemergence) | Dayflower plant response rating (Virginia dayflower; 62 g ai/ha, Preemergence) | Dayflower plant response rating (Virginia dayflower; 125 g ai/ha, preemergence) | Plant response rating, Dayflower (Virginia dayflower; Preemergence, 31 g ai/ha) | Velvetleaf plant response rating (velvetleaf; [12]) | Bluegrass plant response rating (annual bluegrass; 125 g ai/ha, preemergence)
90: Black Mustard plant response rating (mustard; 125 g ai/ha, preemergence) | Plant response rating, Barnyardgrass (barnyardgrass [2]; Postemergence, 125 g ai/ha) | Barnyardgrass plant response rating (barnyardgrass [2]; [5]) | Barnyardgrass plant response rating (barnyardgrass [2]; [6]) | Foxtail, Green plant response rating (green foxtail; 62 g ai/ha, Preemergence) | Bluegrass plant response rating (annual bluegrass; 62 g ai/ha, Preemergence) | Itchgrass plant response rating (itchgrass; 125 g ai/ha, preemergence)
